Source: US8372799B2, “Reverse protein” (Apeptico Forschung und Entwicklung GmbH, priority 2007, dated 2013)
Where a SMILES comes first, the peptide text is derived from it. Bridges are numbered along the chain shown (N, C = ends).

Assays:
[1] = system: Interleukin-6 (IL-6); test: Determination of inflammatory parameters: Interleukin-6 release in human fresh blood (ELISA); format: cell-based; conditions: for inflammatory proteins such as the inflammation marker Interleukin-6 (IL-6): human immune cells from the blood, protein at a small concentration; for Concentration of Interleukin-6 (average of three measurements): human fresh blood, 24 hours at 37° C.
Description: For the examination, human immune cells from the blood are mixed with protein according to the present invention at a small concentration and are incubated in a manner common in laboratories. Subsequently, marker proteins for inflammations are determined by conventional methods.
Fresh human blood has a very sensitive reaction to pro-inflammatory molecules, among other things, with a release of the inflammation marker Interleukin-6 (IL-6). For determining the pro-inflammatory reaction, samples of human fresh blood with different concentrations of the protein comprising amino acid sequence SEQ ID NO:3 were incubated at the following concentrations: 10 μg/ml, 3 μg/ml, 1 μg/ml. After an incubation of 24 hours at 37° C., the inflammation marker Interleukin-6 was quantitatively determined in the solution via ELISA. LPS served as a positive control.

[2] = system: pulmonary oedema in Wistar rats; test: Experimental animal study pulmonary oedema: oxygen content of arterial blood after acid lung rinsing; format: in vivo, rat; conditions: 125 μg protein intratracheal, 180 minutes after lung rinsing, before rinsing = 100%, without protein 20%
From the text: For the simulation of an acute lung injury and for the formation of a pulmonary oedema, the lungs of laboratory animals, e.g., mice or rats, can be rinsed several times with an acidified saline solution in a manner common in laboratories (for example, according to Isik F. et al., Eur J Cardiothorac Surg (2005); 28: 301-305). The result is a decrease in lung function. If a protein according to the present invention, e.g., a protein of amino acid sequence SEQ ID NO:1, SEQ ID NO:2 or SEQ ID NO:3, is injected as a fog or in an aqueous solution into the lungs of the laboratory animals, a distinct improvement in the lung function will occur within 3 to 5 hours, as indicated by the increased oxygen content in the arterial blood. Thus, a protein according to the present invention can be used for the treatment of oedemas such as pulmonary oedemas.
Male Wistar rats (weighing from 250 g to 350 g) are anesthetized with Rompun® (0.02 ml/100 g) and Ketavet® (0.1 ml/100 g). The respiration is done with a cycle of […], with an inhalation time of 0.2 seconds and an exhalation time of 0.5 seconds. The body temperature ranges, on average, from 37° C. to 39° C. […]
At intervals of 60 minutes each, arterial blood (0.1 ml) is withdrawn from the animals, and the oxygen content is determined in % relative to the normal value.
The verification of the stimulating effect of a protein according to the present invention, e.g., of a protein comprising amino acid sequence SEQ ID NO:1, SEQ ID NO:2 or SEQ ID NO:3, on the lung function is made via experimental animal studies in which a pulmonary oedema is induced. […] In each case, 5 animals are used for objectifying the measured values.
For the intratracheal inhalation, 125 μg protein are, in each case, dissolved in 150 mM saline solution pH 7.3. The oxygen content of the arterial blood is measured immediately before rinsing the lungs, 60 minutes after rinsing the lungs and 180 minutes after rinsing the lungs.
The oxygen content immediately before rinsing the lungs is determined to be 100%. […]

## CC[C@H](C)[C@H](NC(=O)[C@H](C)N)C(=O)N[C@@H](CCCCN)C(=O)N[C@@H](CO)C(=O)N1CCC[C@H]1C(=O)N[C@H]1CSSC[C@@H](C(=O)N2CCC[C@H]2C(=O)N[C@@H](CO)C(=O)N[C@H](C(=O)N[C@@H](Cc2c[nH]cn2)C(=O)N[C@H](C(=O)O)C(C)C)[C@@H](C)O)NC(=O)CNC(=O)CNC(=O)[C@H](CCCCN)NC(=O)[C@H](C)NC(=O)[C@H](CCC(=O)O)NC(=O)[C@H](C)NC(=O)CNC(=O)[C@H](CCC(=O)O)NC(=O)[C@@H]2CCCN2C(=O)[C@H]([C@@H](C)O)NC(=O)[C@H](CCC(=O)O)NC(=O)[C@H](CCCNC(=N)N)NC(=O)[C@H](CCC(N)=O)NC1=O [SEQ ID NO:1] (H-AIKSPCQRETPEGAEAKGGCPSTHV-OH; disulfide 6-20)
[1]
  inflammatory proteins such as the inflammation marker Interleukin-6 (IL-6): cannot be detected
[2]
  oxygen content in the arterial blood: 60%

## C[C@@H]1NC(=O)CNC(=O)[C@H](CCC(=O)O)NC(=O)[C@@H]2CCCN2C(=O)[C@H]([C@@H](C)O)NC(=O)[C@H](CCC(=O)O)NC(=O)[C@H](CCCNC(=N)N)NC(=O)[C@H](CCC(N)=O)NC(=O)[C@@H](NC(=O)[C@@H]2CCCN2C(=O)[C@H](CO)NC(=O)[C@@H](N)CCCCN)CSSC[C@@H](C(=O)N2CCC[C@H]2C(=O)N[C@@H](CO)C(=O)O)NC(=O)CNC(=O)CNC(=O)[C@H](CCCCN)NC(=O)[C@H](C)NC(=O)[C@H](CCC(=O)O)NC1=O [SEQ ID NO:2] (H-KSPCQRETPEGAEAKGGCPS-OH; disulfide 4-18)
[1]
  inflammatory proteins such as the inflammation marker Interleukin-6 (IL-6): cannot be detected
[2]
  oxygen content in the arterial blood: 63%

## C[C@@H]1NC(=O)CNC(=O)[C@H](CCC(=O)O)NC(=O)[C@@H]2CCCN2C(=O)[C@H]([C@@H](C)O)NC(=O)[C@H](CCC(=O)O)NC(=O)[C@H](CCCNC(=N)N)NC(=O)[C@H](CCC(N)=O)NC(=O)[C@@H](N)CSSC[C@@H](C(=O)O)NC(=O)CNC(=O)CNC(=O)[C@H](CCCCN)NC(=O)[C@H](C)NC(=O)[C@H](CCC(=O)O)NC1=O [SEQ ID NO:3, (NH2)Cys-Gln-Arg-Glu-Thr-Pro-Glu-Gly-Ala-Glu-Ala-Lys-Gly-Gly-Cys(COOH)] (H-CQRETPEGAEAKGGC-OH; disulfide 1-15)
[1]; 1 μg/ml
  Concentration of Interleukin-6 (average of three measurements): less than 0.5 pg/ml
[1]; 10 μg/ml
  Concentration of Interleukin-6 (average of three measurements): less than 0.5 pg/ml
[1]; 1 nμg/ml
  Concentration of Interleukin-6 (average of three measurements): less than 0.5 pg/ml
[1]; 3 nμg/ml
  Concentration of Interleukin-6 (average of three measurements): less than 0.5 pg/ml
[1]
  inflammatory proteins such as the inflammation marker Interleukin-6 (IL-6): cannot be detected
[2]
  oxygen content in the arterial blood: 70%
